# pIC50: −log10 of the molar value.
# Target: T1, human clotting factor VIIa (Homo sapiens, UniProt P08709)
# T1 construct: a human clotting factor VIIa (hereinafter, “Factor VIIa”) purified sample; purchased Enzyme Research Laboratories HFVIIa
# Experiment: Inhibitory activity against clotting factor VIIa (chromogenic substrate Spectrozyme FVIIa, TF/Factor VIIa enzyme solution)
# Format: biochemical
# Conditions: human Factor VIIa 5 nmol/L with human TF 10 nmol/L, room temperature 40 minutes, 405 nm
# Method: [Inhibitory Activity Against Clotting Factor VIIa]
# Dimethylsulfoxide (DMSO) solutions were prepared with compounds of the invention at concentration of 10 mmol/L (10 mmol/L compound solutions).
# One packet of tris-hydroxymethylaminomethane-preset (hereinafter referred to as “Tris preset”) (Product of Sigma Corp., Catalog No. T8293), 8.8 g of sodium chloride (NaCl) and 1 g of bovine serum albumin (hereinafter abbreviated as “BSA”) were dissolved in 1 L of water to prepare a Tris-BSA buffer (100 mmol/L Tris, 0.15 mol/L NaCl, 0.1% BSA, pH 7.4).
# This Tris-BSA buffer (180 μL) was added to the aforementioned 10 mmol/L compound solution (20 μL). A 10-fold dilution series was prepared for this mixture using the aforementioned Tris-BSA buffer, and solutions with the compound at concentrations of 1.0 mmol/L, 100, 10, 1, 0.1, 0.01 and 0.001 μmol/L were prepared (1.0 mmol-0.001 μmol/L compound solutions). As a control, a solution was prepared by 10-fold dilution of DMSO with the Tris-BSA buffer (hereinafter referred to as “control 10% solution”).
# After dissolving one packet of Tris preset, NaCl (8.8 g) and BSA (1 g) in water (about 900 mL), there were added 1 mol/L aqueous calcium chloride (CaCl2) (15 mL) and 1 mg/mL aqueous cephalin (30 mL), and the total volume was brought to 1 L by adding water. To this solution there was added a human tissue factor (hereinafter, “TF”) sample (product of Calbiochem, Catalog No. 612151) (450 μg) to a TF sample concentration of 10 nmol/L, and then a human clotting factor VIIa (hereinafter, “Factor VIIa”) purified sample (product of Enzyme Research Laboratories, Catalog No. HFVIIa) (250 μg) was added to a Factor VIIa purified sample concentration of 5 nmol/L, to prepare an enzyme solution (100 mmol/L Tris-HCl, 0.15 mol/L NaCl, 15 mmol/L CaCl2, 30 μg/mL cephalin, 1 mg/mL BSA, 10 nmol/L TF, 5 nmol/L Factor VIIa).
# To 110 μL of this enzyme solution there was added 15 μL of each of the 1.0 mmol-0.001 μmol/L compound solutions, and then 25 μL of a 1.0 mmol/L synthetic chromogenic substrate solution (Spectrozyme FVIIa, product of American Diagnostica, Catalog No. 217L) was added and the mixture was allowed to stand at room temperature for 40 minutes. Next, the amount of 4-nitroanilide released into the solution was quantitated by spectrophotometry (405 nm).
# A control measurement was conducted in the same manner, using the control 10% solution instead of the compound solution.
# This measurement yielded the enzyme reaction inhibition in the presence of 100 μmol/L to 0.1 nmol/L of each compound of the invention.
# The enzyme reaction inhibition at each compound concentration was subjected to non-linear regression analysis, and the IC50 value for inhibitory activity of each compound against clotting factor VIIa was calculated.
# T1 sequence (P08709 213-466 limits assumed): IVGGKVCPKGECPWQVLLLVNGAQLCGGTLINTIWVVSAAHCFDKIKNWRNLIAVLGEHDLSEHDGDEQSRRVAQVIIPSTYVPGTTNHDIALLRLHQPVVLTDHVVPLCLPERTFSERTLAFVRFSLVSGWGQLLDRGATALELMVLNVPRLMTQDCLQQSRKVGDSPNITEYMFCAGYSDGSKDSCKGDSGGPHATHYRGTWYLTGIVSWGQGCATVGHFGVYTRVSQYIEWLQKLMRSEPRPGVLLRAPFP
# T1 sequence (P08709 61-212 limits assumed): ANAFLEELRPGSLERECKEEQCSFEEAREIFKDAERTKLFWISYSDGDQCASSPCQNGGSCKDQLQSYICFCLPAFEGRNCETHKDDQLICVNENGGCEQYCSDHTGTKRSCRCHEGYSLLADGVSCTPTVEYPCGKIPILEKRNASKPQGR
# T1 sequence (P13726 33-295 partner): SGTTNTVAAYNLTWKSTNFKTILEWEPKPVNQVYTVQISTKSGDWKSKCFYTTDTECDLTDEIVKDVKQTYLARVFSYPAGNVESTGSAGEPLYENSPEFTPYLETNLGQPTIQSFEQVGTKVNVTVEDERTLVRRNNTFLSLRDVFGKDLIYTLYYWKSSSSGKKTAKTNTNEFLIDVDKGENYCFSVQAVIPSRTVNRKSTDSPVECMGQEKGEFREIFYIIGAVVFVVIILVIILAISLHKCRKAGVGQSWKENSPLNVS
row,SMILES,pIC50
1,"COc1cc(C(Nc2ccc(C(=N)N)cc2)c2nn(-c3ncccc3N)c(=O)[nH]2)c(F)c2c1OCC2 (racemic) [Example 52, (R) and (S)-4-({[1-(3-aminopyridin-2-yl)-5-oxo-4,5-dihydro-1H-[1,2,4]triazol-3-yl]-(4-fluoro-7-methoxy-2,3-dihydrobenzofuran-5-yl)methyl}amino)benzamidine diacetate]",8.28
2,"COc1cc(C(Nc2ccc(C(=N)N)cc2)c2nn(-c3ncccn3)c(=O)[nH]2)ccc1OCF (racemic) [Example 53, (R) and (S)-4-{[(4-fluoromethoxy-3-methoxyphenyl)-(5-oxo-1-pyrimidin-2-yl-4,5-dihydro-1H-[1,2,4]triazol-3-yl)methyl]amino}benzamidine acetate]",7.97
3,"COc1cc(C(Nc2ccc(C(=N)N)cc2)c2nn(-c3ncccc3N)c(=O)[nH]2)cc(OC)n1 (racemic) [Example 55, (R) and (S)-4-({[1-(3-aminopyridin-2-yl)-5-oxo-4,5-dihydro-1H-[1,2,4]triazol-3-yl]-(2,6-dimethoxypyridin-4-yl)methyl}amino)benzamidine acetate]",7.99
4,"COc1cc(C(Nc2ccc(C(=N)N)cc2)c2nn(-c3ncccc3F)c(=O)[nH]2)cc(OC)n1 (racemic) [Example 56, (R) and (S)-4-{[(2,6-dimethoxypyridin-4-yl)-[1-(3-fluoropyridin-2-yl)-5-oxo-4,5-dihydro-1H-[1,2,4]triazol-3-yl)methyl]amino}benzamidine acetate]",7.95
5,"Cc1cc(O[C@@H]2CCOC2)cc(C(Nc2ccc(C(=N)N)cc2)c2nn(-c3ncccn3)c(=O)[nH]2)c1 (mixture of isomers) [Example 59, 4-[((R) and (S)-{3-methyl-5-[(R)-(tetrahydrofuran-3-yl)oxy]phenyl}-(5-oxo-1-pyrimidin-2-yl-4,5-dihydro-1H-[1,2,4]triazol-3-yl)methyl)amino]benzamidine acetate]",8.35
6,"Cc1cc(OC2CCOCC2)cc(C(Nc2ccc(C(=N)N)cc2)c2nn(-c3ncccn3)c(=O)[nH]2)c1 (racemic) [Example 60, (R) and (S)-4-({[3-methyl-5-(tetrahydropyran-4-yloxy)phenyl]-(5-oxo-1-pyrimidin-2-yl-4,5-dihydro-1H-[1,2,4]triazol-3-yl)methyl}amino)benzamidine acetate]",8.43

# The remaining compounds from weak to strong by pIC50, led by results:
row,pIC50,SMILES
1,7.73,"COc1cc(C(Nc2ccc(C(=N)N)cc2)c2nn(-c3ncccn3)c(=O)[nH]2)cc(OC)n1 (racemic) [Example 54, (R) and (S)-4-{[(2,6-dimethoxypyridin-4-yl)-(5-oxo-1-pyrimidin-2-yl-4,5-dihydro-1H-[1,2,4]triazol-3-yl)methyl]amino}benzamidine acetate]"
2,8.25,"COc1cc(OCCF)cc(C(Nc2ccc(C(=N)N)cc2)c2nn(-c3ncccn3)c(=O)[nH]2)c1 (racemic) [Example 61, (R) and (S)-4-({[3-(2-fluoroethoxy)-5-methoxyphenyl]-(5-oxo-1-pyrimidin-2-yl-4,5-dihydro-1H-[1,2,4]triazol-3-yl)methyl}amino)benzamidine acetate]"
3,8.47,"Cc1cc(O[C@H]2CCOC2)cc(C(Nc2ccc(C(=N)N)cc2)c2nn(-c3ncccn3)c(=O)[nH]2)c1 (mixture of isomers) [Example 58, 4-[((R) and (S)-{3-methyl-5-[(S)-(tetrahydrofuran-3-yl)oxy]phenyl}-(5-oxo-1-pyrimidin-2-yl-4,5-dihydro-1H-[1,2,4]triazol-3-yl)methyl)amino]benzamidine acetate]"
4,8.49,"COc1cc(OCCF)c(F)c(C(Nc2ccc(C(=N)N)cc2)c2nn(-c3cccnc3N)c(=O)[nH]2)c1 (racemic) [Example 50, (R) and (S)-4-({[1-(2-aminopyridin-3-yl)-5-oxo-4,5-dihydro-1H-[1,2,4]triazol-3-yl]-[2-fluoro-3-(2-fluoroethoxy)-5-methoxyphenyl]methyl}amino)benzamidine diacetate]"
